Test results from the NIST ThermoML archive (doi:10.1016/j.jct.2017.01.016).
Numbers after ± are expanded uncertainties.

Experiment: xn = mol fraction of the nth substance listed
Details: 101 kPa, Liquid; for viscosity: Capillary tube (Ostwald / Ubbelohde) method; for speed of sound: Frequency=3 MHz, Linear variable-path acoustic interferometer

Cc1ccccc1C [1,2-dimethylbenzene] + C1COCCO1
Details | speed of sound [m/s] | viscosity [mPa·s]
293.15 K, x2 = 0 | 1367.7 ± 1.7 | 0.8066 ± 0.017
293.15 K, x2 = 0.0672 | 1361.7 ± 1.7 | 0.8314 ± 0.017
293.15 K, x2 = 0.1391 | 1355.5 ± 1.7 | 0.8598 ± 0.018
293.15 K, x2 = 0.2103 | 1350 ± 1.7 | 0.8896 ± 0.019
293.15 K, x2 = 0.2853 | 1345.3 ± 1.7 | 0.9224 ± 0.019
293.15 K, x2 = 0.3543 | 1341.7 ± 1.7 | 0.9541 ± 0.02
293.15 K, x2 = 0.4293 | 1338.8 ± 1.7 | 0.9899 ± 0.021
293.15 K, x2 = 0.5092 | 1336.9 ± 1.7 | 1.03 ± 0.021
293.15 K, x2 = 0.581 | 1336.5 ± 1.7 | 1.067 ± 0.022
293.15 K, x2 = 0.6518 | 1337.4 ± 1.7 | 1.104 ± 0.023
293.15 K, x2 = 0.7248 | 1339.8 ± 1.7 | 1.144 ± 0.024
293.15 K, x2 = 0.7888 | 1343.5 ± 1.7 | 1.18 ± 0.025
293.15 K, x2 = 0.8595 | 1349.3 ± 1.7 | 1.221 ± 0.025
293.15 K, x2 = 0.9298 | 1357.1 ± 1.7 | 1.263 ± 0.026
298.15 K, x2 = 0 | 1347.5 ± 1.7 | 0.7576 ± 0.016
298.15 K, x2 = 0.0672 | 1341.5 ± 1.7 | 0.7791 ± 0.016
298.15 K, x2 = 0.1391 | 1335.1 ± 1.7 | 0.8033 ± 0.017
298.15 K, x2 = 0.2103 | 1329.6 ± 1.7 | 0.829 ± 0.017
298.15 K, x2 = 0.2853 | 1324.8 ± 1.7 | 0.8576 ± 0.018
298.15 K, x2 = 0.3543 | 1321 ± 1.7 | 0.8851 ± 0.018
298.15 K, x2 = 0.4293 | 1317.9 ± 1.7 | 0.9162 ± 0.019
298.15 K, x2 = 0.5092 | 1315.9 ± 1.7 | 0.9509 ± 0.02
298.15 K, x2 = 0.581 | 1315.4 ± 1.7 | 0.9833 ± 0.021
298.15 K, x2 = 0.6518 | 1316.2 ± 1.7 | 1.016 ± 0.021
298.15 K, x2 = 0.7248 | 1318.3 ± 1.7 | 1.052 ± 0.022
298.15 K, x2 = 0.7888 | 1321.9 ± 1.7 | 1.083 ± 0.023
298.15 K, x2 = 0.8595 | 1327.4 ± 1.7 | 1.12 ± 0.023
298.15 K, x2 = 0.9298 | 1334.9 ± 1.7 | 1.157 ± 0.024
303.15 K, x2 = 0 | 1329.4 ± 1.7 | 0.7132 ± 0.015
303.15 K, x2 = 0.0672 | 1323 ± 1.7 | 0.7321 ± 0.015
303.15 K, x2 = 0.1391 | 1316.5 ± 1.7 | 0.7527 ± 0.016
303.15 K, x2 = 0.2103 | 1311 ± 1.7 | 0.7747 ± 0.016
303.15 K, x2 = 0.2853 | 1306 ± 1.7 | 0.7992 ± 0.017
303.15 K, x2 = 0.3543 | 1302 ± 1.6 | 0.823 ± 0.017
303.15 K, x2 = 0.4293 | 1298.6 ± 1.6 | 0.8502 ± 0.018
303.15 K, x2 = 0.5092 | 1296.3 ± 1.6 | 0.8806 ± 0.018
303.15 K, x2 = 0.581 | 1295.5 ± 1.6 | 0.909 ± 0.019
303.15 K, x2 = 0.6518 | 1296 ± 1.6 | 0.9382 ± 0.02
303.15 K, x2 = 0.7248 | 1298 ± 1.6 | 0.9693 ± 0.02
303.15 K, x2 = 0.7888 | 1301.3 ± 1.6 | 0.9977 ± 0.021
303.15 K, x2 = 0.8595 | 1306.5 ± 1.7 | 1.03 ± 0.021
303.15 K, x2 = 0.9298 | 1313.7 ± 1.7 | 1.063 ± 0.022
308.15 K, x2 = 0 | 1313.3 ± 1.7 | 0.669 ± 0.014
308.15 K, x2 = 0.0672 | 1306.3 ± 1.7 | 0.6862 ± 0.014
308.15 K, x2 = 0.1391 | 1299.9 ± 1.6 | 0.7045 ± 0.015
308.15 K, x2 = 0.2103 | 1293.9 ± 1.6 | 0.724 ± 0.015
308.15 K, x2 = 0.2853 | 1288.5 ± 1.6 | 0.746 ± 0.016
308.15 K, x2 = 0.3543 | 1284.3 ± 1.6 | 0.7675 ± 0.016
308.15 K, x2 = 0.4293 | 1280.4 ± 1.6 | 0.792 ± 0.017
308.15 K, x2 = 0.5092 | 1277.8 ± 1.6 | 0.8194 ± 0.017
308.15 K, x2 = 0.581 | 1276.7 ± 1.6 | 0.8452 ± 0.018
308.15 K, x2 = 0.6518 | 1276.8 ± 1.6 | 0.8715 ± 0.018
308.15 K, x2 = 0.7248 | 1278.4 ± 1.6 | 0.8997 ± 0.019
308.15 K, x2 = 0.7888 | 1281.2 ± 1.6 | 0.9256 ± 0.019
308.15 K, x2 = 0.8595 | 1285.9 ± 1.6 | 0.9546 ± 0.02
308.15 K, x2 = 0.9298 | 1292.5 ± 1.6 | 0.9846 ± 0.021
313.15 K, x2 = 0 | 1298.5 ± 1.6 | 0.6315 ± 0.013
313.15 K, x2 = 0.0672 | 1291 ± 1.6 | 0.647 ± 0.014
313.15 K, x2 = 0.1391 | 1284 ± 1.6 | 0.6637 ± 0.014
313.15 K, x2 = 0.2103 | 1277.8 ± 1.6 | 0.6813 ± 0.014
313.15 K, x2 = 0.2853 | 1272.1 ± 1.6 | 0.7012 ± 0.015
313.15 K, x2 = 0.3543 | 1267.6 ± 1.6 | 0.7205 ± 0.015
313.15 K, x2 = 0.4293 | 1263.5 ± 1.6 | 0.7428 ± 0.015
313.15 K, x2 = 0.5092 | 1260.5 ± 1.6 | 0.7677 ± 0.016
313.15 K, x2 = 0.581 | 1259 ± 1.6 | 0.7912 ± 0.017
313.15 K, x2 = 0.6518 | 1258.6 ± 1.6 | 0.8152 ± 0.017
313.15 K, x2 = 0.7248 | 1259.6 ± 1.6 | 0.8408 ± 0.017
313.15 K, x2 = 0.7888 | 1262 ± 1.6 | 0.8642 ± 0.018
313.15 K, x2 = 0.8595 | 1266 ± 1.6 | 0.8906 ± 0.019
313.15 K, x2 = 0.9298 | 1271.8 ± 1.6 | 0.9176 ± 0.019
318.15 K, x2 = 0 | 1285.2 ± 1.6 | 0.5972 ± 0.013
318.15 K, x2 = 0.0672 | 1277.2 ± 1.6 | 0.6114 ± 0.013
318.15 K, x2 = 0.1391 | 1269.7 ± 1.6 | 0.6267 ± 0.013
318.15 K, x2 = 0.2103 | 1263 ± 1.6 | 0.6427 ± 0.013
318.15 K, x2 = 0.2853 | 1256.9 ± 1.6 | 0.661 ± 0.014
318.15 K, x2 = 0.3543 | 1252.1 ± 1.6 | 0.6786 ± 0.014
318.15 K, x2 = 0.4293 | 1247.7 ± 1.6 | 0.699 ± 0.015
318.15 K, x2 = 0.5092 | 1244.1 ± 1.6 | 0.7218 ± 0.015
318.15 K, x2 = 0.581 | 1242.1 ± 1.6 | 0.743 ± 0.015
318.15 K, x2 = 0.6518 | 1241.3 ± 1.6 | 0.7649 ± 0.016
318.15 K, x2 = 0.7248 | 1241.7 ± 1.6 | 0.7884 ± 0.017
318.15 K, x2 = 0.7888 | 1243.4 ± 1.6 | 0.8098 ± 0.017
318.15 K, x2 = 0.8595 | 1246.6 ± 1.6 | 0.834 ± 0.017
318.15 K, x2 = 0.9298 | 1251.6 ± 1.6 | 0.859 ± 0.018
